# According to article PMC12090182, “Repurposing of the RIPK1-Selective Benzo[1,4]oxazepin-4-one Scaffold for the Development of a Type III LIMK1/2 Inhibitor” (ACS Chemical Biology, 2025):
# Where two headings read alike, the source gives them in different places.
# Legend:
# Experiment in all cases: biochemical
# Format in all cases: binding
# [1] = biological target: 468 kinases including some pathogenic mutants (Homo sapiens, UniProt Q9Y5S2); conditions: MRCKB (Entrez CDC42BPB), 1000 nM; read-out: Percent Control
# [2] = biological target: 468 kinases including some pathogenic mutants (Homo sapiens, UniProt Q9BRS2); conditions: RIOK1 (Entrez RIOK1), 100 nM; read-out: Percent Control
# [3] = biological target: 468 kinases including some pathogenic mutants (Homo sapiens, UniProt Q9NRP7); conditions: STK36 (Entrez STK36), 100 nM; read-out: Percent Control
# [4] = biological target: 468 kinases including some pathogenic mutants (Homo sapiens, UniProt P30291); conditions: WEE1 (Entrez WEE1), 100 nM; read-out: Percent Control
# [5] = biological target: 468 kinases including some pathogenic mutants (Homo sapiens, UniProt O00444); conditions: PLK4 (Entrez PLK4), 100 nM; read-out: Percent Control
# [6] = biological target: 468 kinases including some pathogenic mutants (Homo sapiens, UniProt P08581, Y1235D); conditions: read-out: Percent Control
# [7] = biological target: 468 kinases including some pathogenic mutants (Homo sapiens, UniProt P23458); conditions: read-out: Percent Control
# [8] = biological target: 468 kinases including some pathogenic mutants (Homo sapiens, UniProt Q9UF33); conditions: EPHA6 (Entrez EPHA6), 100 nM; read-out: Percent Control
# [9] = biological target: 468 kinases including some pathogenic mutants (Homo sapiens, UniProt O75116); conditions: ROCK2 (Entrez ROCK2), 100 nM; read-out: Percent Control
# [10] = biological target: 468 kinases including some pathogenic mutants (Homo sapiens, UniProt Q16584); conditions: MLK3 (Entrez MAP3K11), 100 nM; read-out: Percent Control
# [11] = biological target: 468 kinases including some pathogenic mutants (Homo sapiens, UniProt Q9UBF8); conditions: PIK4CB (Entrez PI4KB), 100 nM; read-out: Percent Control
# [12] = biological target: 468 kinases including some pathogenic mutants (Homo sapiens, UniProt Q9BUB5); conditions: MKNK1 (Entrez MKNK1), 100 nM; read-out: Percent Control
# [13] = biological target: 468 kinases including some pathogenic mutants (Homo sapiens, UniProt P42685); conditions: FRK (Entrez FRK), 100 nM; read-out: Percent Control
# [14] = biological target: 468 kinases including some pathogenic mutants (Homo sapiens, UniProt P06239); conditions: LCK (Entrez LCK), 100 nM; read-out: Percent Control
# [15] = biological target: 468 kinases including some pathogenic mutants (Homo sapiens, UniProt Q9BXA7); conditions: TSSK1B (Entrez TSSK1B), 100 nM; read-out: Percent Control
# [16] = biological target: 468 kinases including some pathogenic mutants (Homo sapiens, UniProt Q9P0L2); conditions: MARK1 (Entrez MARK1), 1000 nM; read-out: Percent Control
# [17] = biological target: 468 kinases including some pathogenic mutants (Homo sapiens, UniProt O95819); conditions: MAP4K4 (Entrez MAP4K4), 100 nM; read-out: Percent Control
# [18] = biological target: 468 kinases including some pathogenic mutants (Homo sapiens, UniProt Q9HC98); conditions: NEK6 (Entrez NEK6), 1000 nM; read-out: Percent Control
# [19] = biological target: 468 kinases including some pathogenic mutants (Homo sapiens, UniProt Q99640); conditions: PKMYT1 (Entrez PKMYT1), 100 nM; read-out: Percent Control
# [20] = biological target: 468 kinases including some pathogenic mutants (Homo sapiens, UniProt Q9UEE5); conditions: DRAK1 (Entrez STK17A), 100 nM; read-out: Percent Control
# [21] = biological target: 468 kinases including some pathogenic mutants (Homo sapiens, UniProt P22694); conditions: PKAC-beta (Entrez PRKACB), 100 nM; read-out: Percent Control
# [22] = biological target: 468 kinases including some pathogenic mutants (Homo sapiens, UniProt Q06418); conditions: TYRO3 (Entrez TYRO3), 100 nM; read-out: Percent Control
# [23] = biological target: 468 kinases including some pathogenic mutants (Homo sapiens, UniProt Q6P3R8); conditions: NEK5 (Entrez NEK5), 100 nM; read-out: Percent Control
# [24] = biological target: 468 kinases including some pathogenic mutants (Homo sapiens, UniProt Q12866); conditions: MERTK (Entrez MERTK), 100 nM; read-out: Percent Control
# [25] = biological target: 468 kinases including some pathogenic mutants (Homo sapiens, UniProt P37023); conditions: ACVRL1 (Entrez ACVRL1), 100 nM; read-out: Percent Control
# [26] = biological target: 468 kinases including some pathogenic mutants (Homo sapiens, UniProt O75676); conditions: 1000 nM, read-out: Percent Control
# [27] = biological target: 468 kinases including some pathogenic mutants (Homo sapiens, UniProt Q9BZL6); conditions: PRKD2 (Entrez PRKD2), 100 nM; read-out: Percent Control
# [28] = biological target: 468 kinases including some pathogenic mutants (Homo sapiens, UniProt P57059); conditions: SIK (Entrez SIK1), 100 nM; read-out: Percent Control
# Sequence of 468 kinases including some pathogenic mutants (Homo sapiens, UniProt O75676) (O75676 whole entry, change not shown): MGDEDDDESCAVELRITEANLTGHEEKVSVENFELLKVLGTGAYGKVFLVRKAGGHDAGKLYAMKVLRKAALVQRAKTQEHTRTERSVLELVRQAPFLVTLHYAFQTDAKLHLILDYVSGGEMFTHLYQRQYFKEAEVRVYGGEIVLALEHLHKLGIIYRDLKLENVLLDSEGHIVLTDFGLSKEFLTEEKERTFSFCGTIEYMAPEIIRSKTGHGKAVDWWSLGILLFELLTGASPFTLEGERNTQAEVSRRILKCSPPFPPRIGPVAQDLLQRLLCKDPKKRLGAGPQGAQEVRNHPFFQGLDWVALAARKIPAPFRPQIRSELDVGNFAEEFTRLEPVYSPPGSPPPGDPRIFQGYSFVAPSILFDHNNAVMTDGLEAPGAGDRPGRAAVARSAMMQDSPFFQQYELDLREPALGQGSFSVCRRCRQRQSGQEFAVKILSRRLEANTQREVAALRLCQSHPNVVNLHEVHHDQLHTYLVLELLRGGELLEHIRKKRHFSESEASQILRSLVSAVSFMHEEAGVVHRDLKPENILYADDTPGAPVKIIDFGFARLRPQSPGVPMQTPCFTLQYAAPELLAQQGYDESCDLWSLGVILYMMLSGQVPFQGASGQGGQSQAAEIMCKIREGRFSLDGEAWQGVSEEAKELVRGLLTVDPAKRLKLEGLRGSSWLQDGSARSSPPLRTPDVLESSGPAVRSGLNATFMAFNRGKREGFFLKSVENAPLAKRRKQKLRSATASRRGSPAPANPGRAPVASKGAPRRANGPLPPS
# Sequence of 468 kinases including some pathogenic mutants (Homo sapiens, UniProt P23458) (P23458 whole entry, change not shown): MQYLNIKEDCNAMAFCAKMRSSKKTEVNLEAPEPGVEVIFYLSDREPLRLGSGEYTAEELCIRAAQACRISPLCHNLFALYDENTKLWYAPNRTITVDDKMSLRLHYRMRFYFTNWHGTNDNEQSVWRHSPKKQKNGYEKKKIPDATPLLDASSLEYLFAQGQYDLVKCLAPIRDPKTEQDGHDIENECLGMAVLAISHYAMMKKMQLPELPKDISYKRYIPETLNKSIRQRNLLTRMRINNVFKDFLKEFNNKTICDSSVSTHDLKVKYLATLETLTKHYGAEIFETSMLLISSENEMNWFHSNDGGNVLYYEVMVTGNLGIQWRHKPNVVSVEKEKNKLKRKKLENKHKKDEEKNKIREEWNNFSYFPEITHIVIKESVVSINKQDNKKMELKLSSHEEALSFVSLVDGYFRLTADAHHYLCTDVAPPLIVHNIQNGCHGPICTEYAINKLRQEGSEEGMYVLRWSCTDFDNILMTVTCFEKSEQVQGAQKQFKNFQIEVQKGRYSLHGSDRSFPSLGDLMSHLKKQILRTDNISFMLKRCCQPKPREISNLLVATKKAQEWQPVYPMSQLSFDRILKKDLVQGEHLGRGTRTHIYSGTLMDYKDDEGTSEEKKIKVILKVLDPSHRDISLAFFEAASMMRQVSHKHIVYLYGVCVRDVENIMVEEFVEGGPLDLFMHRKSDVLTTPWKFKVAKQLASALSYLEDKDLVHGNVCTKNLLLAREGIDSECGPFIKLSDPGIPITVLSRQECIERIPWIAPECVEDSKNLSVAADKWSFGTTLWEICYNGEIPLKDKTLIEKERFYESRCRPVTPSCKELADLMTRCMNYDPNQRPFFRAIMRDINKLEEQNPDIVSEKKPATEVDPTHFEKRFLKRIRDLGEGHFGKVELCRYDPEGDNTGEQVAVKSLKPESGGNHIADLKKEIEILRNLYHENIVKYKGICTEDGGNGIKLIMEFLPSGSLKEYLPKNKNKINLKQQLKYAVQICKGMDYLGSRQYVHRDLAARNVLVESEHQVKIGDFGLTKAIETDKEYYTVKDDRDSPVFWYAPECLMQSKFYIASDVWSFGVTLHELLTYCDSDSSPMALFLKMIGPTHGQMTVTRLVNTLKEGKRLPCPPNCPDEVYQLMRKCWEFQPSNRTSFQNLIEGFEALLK
# Sequence of 468 kinases including some pathogenic mutants (Homo sapiens, UniProt Q9UF33) (Q9UF33 23-1036, change not shown): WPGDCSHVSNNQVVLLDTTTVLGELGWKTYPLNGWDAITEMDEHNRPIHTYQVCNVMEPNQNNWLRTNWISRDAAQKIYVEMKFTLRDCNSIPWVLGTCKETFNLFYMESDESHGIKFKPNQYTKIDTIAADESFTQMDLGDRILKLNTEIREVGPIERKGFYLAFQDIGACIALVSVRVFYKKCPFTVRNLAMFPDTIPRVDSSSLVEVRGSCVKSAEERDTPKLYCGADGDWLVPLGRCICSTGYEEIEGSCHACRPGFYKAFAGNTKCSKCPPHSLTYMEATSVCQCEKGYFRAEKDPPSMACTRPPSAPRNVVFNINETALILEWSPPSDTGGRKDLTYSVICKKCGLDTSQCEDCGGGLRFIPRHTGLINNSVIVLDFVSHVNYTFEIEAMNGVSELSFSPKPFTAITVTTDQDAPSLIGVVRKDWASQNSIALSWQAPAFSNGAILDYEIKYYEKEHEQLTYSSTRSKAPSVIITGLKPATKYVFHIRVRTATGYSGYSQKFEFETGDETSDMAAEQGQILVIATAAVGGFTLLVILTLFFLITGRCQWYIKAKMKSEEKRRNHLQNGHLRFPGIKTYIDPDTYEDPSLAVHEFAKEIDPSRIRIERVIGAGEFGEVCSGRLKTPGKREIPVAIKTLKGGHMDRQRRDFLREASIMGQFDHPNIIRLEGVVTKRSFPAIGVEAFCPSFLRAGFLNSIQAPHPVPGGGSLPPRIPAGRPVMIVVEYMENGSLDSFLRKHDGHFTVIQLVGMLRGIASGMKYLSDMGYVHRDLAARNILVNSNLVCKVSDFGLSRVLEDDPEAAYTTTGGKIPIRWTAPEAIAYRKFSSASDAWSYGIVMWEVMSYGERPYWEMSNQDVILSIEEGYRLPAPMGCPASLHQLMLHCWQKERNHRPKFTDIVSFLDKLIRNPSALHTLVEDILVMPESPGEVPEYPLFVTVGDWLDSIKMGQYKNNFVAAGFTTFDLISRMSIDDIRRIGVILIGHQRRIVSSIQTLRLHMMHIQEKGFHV
# Sequence of 468 kinases including some pathogenic mutants (Homo sapiens, UniProt Q9NRP7) (Q9NRP7 whole entry, change not shown): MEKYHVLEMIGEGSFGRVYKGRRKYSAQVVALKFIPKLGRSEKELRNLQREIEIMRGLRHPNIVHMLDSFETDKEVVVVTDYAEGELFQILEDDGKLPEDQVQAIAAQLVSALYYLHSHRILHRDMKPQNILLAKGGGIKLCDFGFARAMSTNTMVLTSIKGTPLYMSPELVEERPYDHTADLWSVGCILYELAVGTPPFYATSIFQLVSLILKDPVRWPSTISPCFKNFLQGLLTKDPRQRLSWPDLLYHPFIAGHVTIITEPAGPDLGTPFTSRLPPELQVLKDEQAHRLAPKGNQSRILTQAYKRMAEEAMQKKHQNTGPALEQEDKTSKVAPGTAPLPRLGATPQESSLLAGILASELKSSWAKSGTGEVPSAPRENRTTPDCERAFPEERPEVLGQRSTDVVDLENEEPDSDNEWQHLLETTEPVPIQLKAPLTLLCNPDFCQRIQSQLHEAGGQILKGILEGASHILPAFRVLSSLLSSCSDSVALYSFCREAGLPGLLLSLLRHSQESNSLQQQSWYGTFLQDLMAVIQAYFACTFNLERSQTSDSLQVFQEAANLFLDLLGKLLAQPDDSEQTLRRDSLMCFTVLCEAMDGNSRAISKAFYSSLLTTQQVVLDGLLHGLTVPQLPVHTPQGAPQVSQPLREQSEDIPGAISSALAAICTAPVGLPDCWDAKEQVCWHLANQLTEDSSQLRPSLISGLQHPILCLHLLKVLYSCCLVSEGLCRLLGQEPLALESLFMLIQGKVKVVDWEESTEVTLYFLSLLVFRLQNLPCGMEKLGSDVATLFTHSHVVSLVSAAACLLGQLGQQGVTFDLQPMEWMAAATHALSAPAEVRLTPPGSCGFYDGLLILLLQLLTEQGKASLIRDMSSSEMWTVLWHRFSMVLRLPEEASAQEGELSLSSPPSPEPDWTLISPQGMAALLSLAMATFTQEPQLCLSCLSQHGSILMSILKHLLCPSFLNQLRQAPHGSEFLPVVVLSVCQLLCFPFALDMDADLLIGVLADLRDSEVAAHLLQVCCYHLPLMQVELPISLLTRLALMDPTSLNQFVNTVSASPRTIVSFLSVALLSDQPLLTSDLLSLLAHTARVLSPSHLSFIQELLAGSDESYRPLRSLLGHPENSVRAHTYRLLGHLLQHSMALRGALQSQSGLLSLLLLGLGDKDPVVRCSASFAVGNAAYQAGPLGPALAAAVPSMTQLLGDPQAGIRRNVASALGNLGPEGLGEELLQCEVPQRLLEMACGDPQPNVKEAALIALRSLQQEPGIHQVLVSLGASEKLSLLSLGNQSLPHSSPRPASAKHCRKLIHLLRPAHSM
# Sequence of 468 kinases including some pathogenic mutants (Homo sapiens, UniProt Q06418) (Q06418 41-890, change not shown): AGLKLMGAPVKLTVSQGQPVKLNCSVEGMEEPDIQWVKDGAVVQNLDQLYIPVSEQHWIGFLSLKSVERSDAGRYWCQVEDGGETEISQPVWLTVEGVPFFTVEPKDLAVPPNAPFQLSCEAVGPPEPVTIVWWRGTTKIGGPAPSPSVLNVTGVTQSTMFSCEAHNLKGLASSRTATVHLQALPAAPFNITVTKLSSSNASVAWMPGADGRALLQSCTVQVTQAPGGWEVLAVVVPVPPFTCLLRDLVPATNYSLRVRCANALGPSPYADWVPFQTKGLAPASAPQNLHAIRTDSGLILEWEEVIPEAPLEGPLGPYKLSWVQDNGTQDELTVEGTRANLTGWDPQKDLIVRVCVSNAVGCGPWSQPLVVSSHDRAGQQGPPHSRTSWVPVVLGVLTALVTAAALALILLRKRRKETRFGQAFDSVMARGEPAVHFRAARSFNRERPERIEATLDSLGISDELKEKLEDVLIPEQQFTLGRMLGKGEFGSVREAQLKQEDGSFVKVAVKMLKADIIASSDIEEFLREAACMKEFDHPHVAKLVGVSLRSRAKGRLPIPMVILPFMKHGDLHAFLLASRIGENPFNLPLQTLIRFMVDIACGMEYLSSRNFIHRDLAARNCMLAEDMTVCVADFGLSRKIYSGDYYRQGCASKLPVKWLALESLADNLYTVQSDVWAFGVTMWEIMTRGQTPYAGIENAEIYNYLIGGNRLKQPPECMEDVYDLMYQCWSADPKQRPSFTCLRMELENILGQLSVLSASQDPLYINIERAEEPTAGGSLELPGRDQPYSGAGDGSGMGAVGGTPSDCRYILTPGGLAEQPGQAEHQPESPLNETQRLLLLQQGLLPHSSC
compound,measurement,setting,value
"CN1C(=O)[C@@H](N2CCc3c(nn(Cc4ccccc4)c3C(N)=O)C2=O)COc2cc(Cl)ccc21 [Compound 10, (S)-2-benzyl-6-(8-chloro-5-methyl-4-oxo-2,3,4,5-tetrahydrobenzo[b][1,4]oxazepin-3-yl)-7-oxo-4,5,6,7-tetrahydro-2H-pyrazolo[3,4-c]pyridine-3-carboxamide]",remaining activity at 1 µM,[1],100%
same,remaining activity at 0.1 µM,[2],63%
same,remaining activity at 0.1 µM,[3],100%
same,remaining activity at 0.1 µM,[4],92%
same,remaining activity at 0.1 µM,[5],58%
same,remaining activity at 0.1 µM,[6],87%
same,remaining activity at 0.1 µM,"[7]; JAK1(JH1domain-catalytic) (Entrez JAK1), 100 nM",83%
same,remaining activity at 0.1 µM,[7],97%
same,remaining activity at 0.1 µM,[8],66%
same,remaining activity at 0.1 µM,[9],75%
same,remaining activity at 0.1 µM,[10],100%
same,remaining activity at 0.1 µM,[11],94%
same,remaining activity at 0.1 µM,[12],85%
same,remaining activity at 0.1 µM,[13],75%
same,remaining activity at 0.1 µM,[14],100%
same,remaining activity at 0.1 µM,[15],83%
same,remaining activity at 1 µM,[16],100%
same,remaining activity at 0.1 µM,[17],99%
same,remaining activity at 1 µM,[18],100%
same,remaining activity at 0.1 µM,[19],90%
same,remaining activity at 0.1 µM,[20],84%
same,remaining activity at 0.1 µM,[21],56%
same,remaining activity at 0.1 µM,[22],100%
same,remaining activity at 0.1 µM,[23],87%
same,remaining activity at 0.1 µM,[24],72%
same,remaining activity at 0.1 µM,[25],73%
same,remaining activity at 1 µM,[26]; RPS6KA4(Kin.Dom.1-N-terminal) (Entrez RPS6KA4),100%
same,remaining activity at 1 µM,[26]; RPS6KA4(Kin.Dom.2-C-terminal) (Entrez RPS6KA4),100%
same,remaining activity at 0.1 µM,[27],84%
same,remaining activity at 0.1 µM,[28],71%
